In article PMC10574351, “First-Row Transition Metal Complexes Incorporating the 2-(2′-pyridyl)quinoxaline Ligand (pqx), as Potent Inflammatory Mediators: Cytotoxic Properties and Biological Activities against the Platelet-Activating Factor (PAF) and Thrombin” (Molecules, 2023):

Columns and labels:
[1] = system: PAF-induced aggregation in washed rabbit platelets (WRPs); assay: Inhibition of PAF-induced aggregation in washed rabbit platelets; assay type: cell-based; conditions: for IC50: washed rabbit platelets, mean ± SD, read-out: IC50 (μM) towards PAF in WRPs
Protocol: The biological experiments of PAF-induced platelet aggregation as well as the evaluation of the inhibitory effect of its synthetic compounds were performed according to thoroughly described protocols. […] Briefly, in order to obtain the washed rabbit platelets (WRPs), platelet-rich plasma was washed on Ficoll–Paque cushions and adjusted to […] platelets/mL of Tyrode’s buffer, pH 7.2. The dilution of PAF was prepared using pyrogen-free 0.15 M NaCl containing 2.5 mg/mL of crystallized bovine serum albumin, required for dispersion of PAF. The compounds under investigation were firstly dissolved in the appropriate solvent that is: DMSO for pqx (0.010 M), H2O for CrCl3 × 3H2O (0.016 M), H2O for MnCl2 × 4H2O (0.004 M), DMSO-EtOH (4/1, v/v)) for FeCl2 × 4H2O (0.014 M), H2O for CoCl2 × 6H2O (0.010 M), H2O for NiCl2 × 6H2O (0.010 M), H2O for CuCl2 × 2H2O (0.008 M), H2O for ZnCl2 (0.013 M), DMSO for 1 (0.017 M), DMSO for 2 (0.010 M0, DMSO for 3 (0.004 M), DMSO for 4 (0.002 M), DMSO for 5 (0.003 M), DMSO-EtOH-H2O (25/1/1, v/v)) for 6 (0.006 M), DMSO for 7 (0.002 M) and aliquots of these solutions were then added in solutions (2.5 mg BSA/mL) of saline.
The experiment on the inhibitory effect of each compound of interest against the washed rabbit platelets (WRPs) aggregation was carried out as per the already described method. The platelets were from male New Zealand white rabbits (about 20), individually housed in stainless steel cages in an air-conditioned room (19 ± 1 °C, 55 ± 5% humidity on a 12/12 h artificial light/dark cycle). Blood samples were drawn from the main ear artery. Microliters of PAF in a final concentration of about 10^–10 M were added to the cuvette of the aggregometer, and the height of the platelet aggregation was monitored. The platelet aggregation induced by PAF, or thrombin was measured before (considered as 0% inhibition) and after the addition of various concentrations of the examined sample, creating a linear curve of percentage inhibition (ranging from 0 to 100%) versus different concentrations of the sample. From this curve, the concentration of the sample that inhibited 50% PAF-induced aggregation was calculated, and this value was defined as IC50 (Inhibitory concentration for 50% Inhibition). Dithiothreitol-insensitive PAF choline phosphotransferase, lyso-PAF:acetyl-CoA acetyltransferase and PAF-acetylhydrolase activity assays were performed on the homogenates of rabbit leukocytes while the activity of lipoprotein-associated phospholipase A2 was assessed on plasma as previously described. The experiments were performed in a model 400 vs. aggregometer of Chrono-Log (Havertown, PA, USA) coupled to a Chrono-Log recorder at 37 °C with constant stirring at 1200 rpm. The separation of platelets was performed with centrifugations in a 3L-R Heraeus Labofuge (Hvanau, Germany), a 400R Heraeus Labofuge and an RC-5B Sorvall (Newtown, CT, USA) refrigerated super speed centrifuge. Bovine serum albumin (BSA), PAF and analytical solvents for the biological assays were purchased from Sigma. […] The measurements were performed in duplicates for each sample concentration in three different WRP preparations, in order to ensure reproducibility. All experiments were also followed by appropriate control tests of the solvent used (saline solution of BSA, DMSO aliquots in a saline solution of BSA-2.5 mg BSA/mL saline- or just in saline), in WRPs. In the aggregometer cuvette (250 to 500 μL) the overall amount of added DMSO, contained in the solution of the sample under study, is not higher than 2–3 μL. All results were expressed as mean ± standard deviation (SD). The t-test was employed to assess differences among the IC50 values of each metal complex against either the PAF- or thrombin-induced aggregation. Differences were statistically significant when the statistical p-value was smaller than 0.05.

[2] = system: HEK293T (human embryonic kidney cells); assay: MTT cell viability assay, HEK293T; assay type: cell-based; conditions: for IC50: 48 h exposure, mean ± SD; for cytotoxic effect in HEK293T: 48 h
Protocol: In this report, cell viability tests were conducted in HEK293T and HeLa cancer cells by means of the colorimetric 3-(4,5-dimethylthiazol-2-yl)-2,5-diphenyl tetrazolium bromide (MTT) assay after exposure for 48 h. A HeLa cancer cell line was selected since it is widely used in cytotoxicity studies. For all complexes, a 10 mM stock solution in DMSO (H2O for cisplatin) was prepared and diluted appropriately to reach the final concentration reported in the Materials and Methods. The non-cancerous HEK293T cell line was used for comparison. The IC50 values of the first-row metal complexes, the pqx ligand and cisplatin, presented herein were calculated using a dose-response model, which was obtained from sigmoidal fitting of dose-response curves.
The HEK293T cell line (immortalized human embryonic kidney cells) was obtained from the Biomedical Research Foundation Academy of Athens (BRFAA), Athens, Greece and the HeLa cell line (cervical cancer cells) was obtained from the National Centre For Scientific Research Demokritos (NCSR Demokritos), Athens, Greece.
Pqx metal complexes were diluted in stock solutions of 10 mM in dimethyl sulfoxide (DMSO). A similar concentration of cisplatin dissolved in H2O was used. HEK293T and HeLa cells were cultured in Dulbecco’s modified Eagle’s medium (DMEM) with high glucose (Biosera, Nuaille, France) supplemented with 10% fetal bovine serum at 37 °C and 5% CO2. Cells were seeded in sterile tissue culture 96-well plates (SPL Life Science, Pochon, Republic of Korea) at a density of 3000 cells per well. After 24 h, the medium was removed and replaced with fresh media containing various concentrations (0.01 μΜ, 0.1 μΜ, 1 μΜ, 10 μΜ, 25 μΜ, 40 μΜ, 55 μΜ, 70 μΜ, 85 μΜ and 100 μΜ) of the compounds to be tested and was further incubated for 48 h at 37 °C. Dimethyl sulfoxide (DMSO) was used as a vehicle at ≤1%. To measure cytotoxicity, a culture medium containing the compounds (or DMSO) was removed, and 100 μL of 0.5 mg/mL MTT reagent (Applichem, Darmstadt, Germany) diluted in DMEM was added to the cells for 3 h at 37 °C. After 3 h incubation in identical conditions, MTT was removed and 200 μL of DMSO was added. Absorbance values of formazan were measured at 540 nm using a BioTek Synergy H1 microplate reader (Agilent, Santa Clara, CA, USA). All compounds were tested in triplicate. The results were statistically analyzed using the nonlinear regression by GraphPad PRISM (Version 9).

| Molecule | IC50 [1] [µM] | IC50 [2] [µM] | fold more potent against PAF as opposed to thrombin-induced aggregation ([1]; ratio of thrombin and PAF IC50) [fold] | cytotoxic effect in HEK293T [2] |
| --- | --- | --- | --- | --- |
| [Fe(pqx)Cl2]2 [Complex 6] | 1.79 ± 0.12 | 65.8 ± 13.2 | – | – |
| mer-[Cr(pqx)Cl3(H2O)] [Complex 1] | 4.5 ± 0.9 | 99 ± 6.16 | ~12 | negligible cytotoxic effects |
| [Co(pqx)Cl2(DMF)] [Complex 2] | 4.1 ± 0.6 | 67 ± 12.6 | – | – |
| CS(C)=O.[Cl][Cu][Cl].c1ccc(-c2cnc3ccccc3n2)nc1 [Complex 3, [Cu(pqx)Cl2(DMSO)]] | 10.6 ± 1.4 | 2.1 ± 0.52 | – | – |
| [Ni(pqx)Cl2]2 [Complex 7] | 6.83 ± 0.42 | 25.5 ± 8.61 | – | – |
| [Mn(pqx)(H2O)2Cl2]2 [Complex 5] | 39 ± 6 | 28.8 ± 6.16 | – | – |
| [Cl][Zn][Cl].c1ccc(-c2cnc3ccccc3n2)nc1 [Complex 4, [Zn(pqx)Cl2]] | 3.3 ± 0.3 | 94.9 ± 23.2 | – | negligible cytotoxic effects |
